O=C(O)c1ccccc1Nc1ccccc1
solubility (mole fraction)
Settings | in acetone | in acetonitrile | in ethanol | in ethyl acetate | in isopropanol | in methanol | in n-butanol | in n-propanol | in toluene
283.15 K | 0.019 | 0.00147 | 0.00703 | 0.012 | 0.00593 | 0.00331 | 0.00849 | 0.00734 | 0.00238
285.65 K | 0.0202 | 0.00171 | 0.00768 | 0.0133 | 0.00692 | 0.00381 | 0.00972 | 0.00831 | 0.00275
288.15 K | 0.0223 | 0.00197 | 0.00854 | 0.0156 | 0.00805 | 0.00439 | 0.0112 | 0.00975 | 0.00321
290.65 K | 0.0252 | 0.00228 | 0.00958 | 0.0182 | 0.00933 | 0.00521 | 0.013 | 0.0114 | 0.00374
293.15 K | 0.0279 | 0.00268 | 0.0112 | 0.0213 | 0.0107 | 0.0061 | 0.0147 | 0.0132 | 0.00439
295.65 K | 0.0304 | 0.00311 | 0.013 | 0.0235 | 0.0124 | 0.00723 | 0.0167 | 0.0152 | 0.00502
298.15 K | 0.0335 | 0.00373 | 0.0152 | 0.0267 | 0.0144 | 0.00825 | 0.0187 | 0.0172 | 0.00573
300.65 K | 0.0361 | 0.00425 | 0.0171 | 0.0301 | 0.0164 | 0.00944 | 0.0209 | 0.0194 | 0.00648
303.15 K | 0.0399 | 0.00491 | 0.0196 | 0.034 | 0.0184 | 0.0106 | 0.0233 | 0.0216 | 0.00742
305.65 K | 0.0427 | 0.00556 | 0.0219 | 0.0373 | 0.0208 | 0.0119 | 0.0256 | 0.0239 | 0.00841
308.15 K | 0.0465 | 0.00617 | 0.0249 | 0.0414 | 0.0232 | 0.0129 | 0.0283 | 0.0266 | 0.0096
310.65 K | 0.0499 | 0.00695 | 0.0276 | 0.0458 | 0.0254 | 0.0145 | 0.0311 | 0.0292 | 0.0109
313.15 K | 0.0537 | 0.0078 | 0.0311 | 0.0503 | 0.0281 | 0.0164 | 0.0338 | 0.0322 | 0.0124
315.65 K | 0.0582 | 0.00892 | 0.0339 | 0.0555 | 0.0309 | 0.0186 | 0.0367 | 0.035 | 0.014
318.15 K | 0.063 | 0.0102 | 0.0374 | 0.0604 | 0.034 | 0.0212 | 0.0396 | 0.0383 | 0.0155

Source: BigSolDB 2.1
